Results reported in PMC11284788, “NN1213 – A Potent, Long-Acting, and Selective Analog of Human Amylin” (Journal of Medicinal Chemistry, 2024).
Read-outs that look alike come from different tables or passages of the source. Numbered stars: 1 amine (or outer) side, 2 acyl side, 3 side chain; on linkers, the order of the positions; unused ones are H or OH. Bridge positions count the residues as written; N and C are the ends. Side chains are listed from the residue outwards. Peptide text beside a SMILES is read from it. * marks the point of attachment. C20 diacid = O=C(O)CCCCCCCCCCCCCCCCCCC(=O)*; γGlu = O=C(O)[C@H](CCC(=O)[*:2])N[*:1]

Assays:
[1] = HMWP content by size-exclusion chromatography; assay type: physicochemical; conditions: covalent dimers and polymers prior to fibril formation testing, SEC, % of total absorbance area at 215 nm
In short: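 HMWP percentage is the covalent dimer/polymer peak area relative to total absorbance area, with extinction coefficients taken as equal to the main peak. Isocratic size-exclusion elution used 50% (v/v) 2-propanol containing 0.5 M NaCl and phosphate buffer; measured on analogs prior to fibril assays.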

hAMY3R = molecular target: T1, hAMY3R (Homo sapiens, UniProt O60896+P30988); test: scintillation proximity binding assay, hAMY3R membranes; design: expressed in transfected cells; host or cells: BHK tk-ts 13, transient co-transfection; membranes for the SPA, whole cells for the species-specific assays; conditions: for ratio hCTR/hAMY3R: ratio of binding IC50 values
T1 sequence (P30988 25-474): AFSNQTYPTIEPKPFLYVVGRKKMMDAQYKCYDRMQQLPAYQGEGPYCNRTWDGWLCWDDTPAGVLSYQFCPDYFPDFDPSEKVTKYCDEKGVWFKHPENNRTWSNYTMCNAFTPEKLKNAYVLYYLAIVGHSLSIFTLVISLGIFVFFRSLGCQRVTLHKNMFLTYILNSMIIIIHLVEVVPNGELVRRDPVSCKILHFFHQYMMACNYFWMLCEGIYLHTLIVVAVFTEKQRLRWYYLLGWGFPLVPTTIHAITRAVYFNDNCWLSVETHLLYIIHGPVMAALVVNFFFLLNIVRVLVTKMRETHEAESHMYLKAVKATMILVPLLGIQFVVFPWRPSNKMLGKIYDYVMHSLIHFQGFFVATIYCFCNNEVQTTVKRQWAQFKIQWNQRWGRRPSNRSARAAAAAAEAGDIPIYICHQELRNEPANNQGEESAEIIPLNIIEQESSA
T1 sequence (O60896 24-148 partner): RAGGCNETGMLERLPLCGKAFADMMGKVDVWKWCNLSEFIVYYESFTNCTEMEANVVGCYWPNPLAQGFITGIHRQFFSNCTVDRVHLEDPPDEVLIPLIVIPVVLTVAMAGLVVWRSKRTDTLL

[2] = SPA binding assay, Tables S13 and S15, read-out: hAMY3R pIC50 (converted)
[3] = SPA, BHK cell membranes, 125I-rat amylin, 120 min 25 °C, read-out: hAMY3R IC50

Structure (SMILES) | HMWP ([1]; analogs 1–9 (pH 7.5 series)) | IC50 (hAMY3R; [2]) | IC50 (hAMY3R; [3]) | ratio hCTR/hAMY3R (hAMY3R) | HMWP ([1]; analogs 10–21 (pH 4.0 series))
CC[C@H](C)[C@H](NC(=O)[C@@H]1CCCN1C(=O)CNC(=O)[C@H](Cc1ccccc1)NC(=O)[C@H](CC(N)=O)NC(=O)[C@@H]1CCCN1C(=O)[C@H](CO)NC(=O)[C@H](CO)NC(=O)[C@H](Cc1c[nH]cn1)NC(=O)[C@H](CCCNC(=N)N)NC(=O)[C@H](CC(C)C)NC(=O)[C@H](Cc1ccccc1)NC(=O)[C@H](CC(=O)O)NC(=O)[C@H](C)NC(=O)[C@H](CC(C)C)NC(=O)[C@H](CCCNC(=N)N)NC(=O)[C@H](CCC(N)=O)NC(=O)[C@@H](NC(=O)[C@H](C)NC(=O)[C@@H]1CSSC[C@H](NC(=O)[C@@H](N)CCCCNC(=O)CC[C@H](NC(=O)CC[C@H](NC(=O)CCCCCCCCCCCCCCCCCCC(=O)O)C(=O)O)C(=O)O)C(=O)N[C@@H](CC(N)=O)C(=O)N[C@@H]([C@@H](C)O)C(=O)N[C@@H](C)C(=O)N[C@@H]([C@@H](C)O)C(=O)N1)[C@@H](C)O)C(=O)N[C@@H](CC(C)C)C(=O)N[C@@H](CO)C(=O)N[C@@H](CO)C(=O)N[C@H](C(=O)N[C@@H](CC(N)=O)C(=O)N[C@H](C(=O)NCC(=O)N[C@@H](CO)C(=O)N[C@@H](CC(=O)O)C(=O)N[C@H](C(=O)N[C@@H](Cc1ccc(O)cc1)C(N)=O)[C@@H](C)O)C(C)C)[C@@H](C)O [Peptide 3] (H-K([γGlu-γGlu-C20 diacid])CNTATCATQRLADFLRHSSPNFGPILSSTNVGSDTY-NH2; disulfide 2-7) | 24% | 5.13 nM | 5.09 nM | 14 | 
CC[C@H](C)[C@H](NC(=O)[C@H](C)NC(=O)CNC(=O)[C@H](Cc1ccccc1)NC(=O)[C@H](CC(N)=O)NC(=O)[C@@H]1CCCN1C(=O)[C@H](CO)NC(=O)[C@H](CO)NC(=O)[C@H](Cc1c[nH]cn1)NC(=O)[C@H](CCCNC(=N)N)NC(=O)[C@H](CC(C)C)NC(=O)[C@H](Cc1ccccc1)NC(=O)[C@H](CC(N)=O)NC(=O)[C@H](C)NC(=O)[C@H](CC(C)C)NC(=O)[C@H](CCCNC(=N)N)NC(=O)[C@H](CCC(N)=O)NC(=O)[C@@H](NC(=O)[C@H](C)NC(=O)[C@@H]1CSSC[C@H](NC(=O)[C@H](CCCCN)NC(=O)CC[C@H](NC(=O)CCCCCCCCCCCCCCCCCCC(=O)O)C(=O)O)C(=O)N[C@@H](CC(N)=O)C(=O)N[C@@H]([C@@H](C)O)C(=O)N[C@@H](C)C(=O)N[C@@H]([C@@H](C)O)C(=O)N1)[C@@H](C)O)C(=O)N1CCC[C@H]1C(=O)N[C@@H](CO)C(=O)N[C@@H](CO)C(=O)N[C@H](C(=O)N1CCC[C@H]1C(=O)N[C@H](C(=O)NCC(=O)N[C@@H](CO)C(=O)N[C@@H](CCC(=O)O)C(=O)N[C@H](C(=O)N[C@@H](Cc1ccc(O)cc1)C(N)=O)[C@@H](C)O)C(C)C)[C@@H](C)O [Peptide 11] ({C20 diacid-γGlu}-KCNTATCATQRLANFLRHSSPNFGAIPSSTPVGSETY-NH2; disulfide 2-7) |  | 0.589 nM | 0.589 nM | 20 | 2.6%
